# Measurements: patent publication US20210220408A1, “ARYL HYDROCARBON RECEPTOR ANTAGONISTS AND METHODS OF USE” (Magenta Therapeutics Inc., priority 2018, published 2021)
# pIC50: −log10 of the molar value.
# Target: T1, aryl hydrocarbon receptor (AHR) (Homo sapiens, UniProt P35869)
# T1 sequence (P35869 11-848): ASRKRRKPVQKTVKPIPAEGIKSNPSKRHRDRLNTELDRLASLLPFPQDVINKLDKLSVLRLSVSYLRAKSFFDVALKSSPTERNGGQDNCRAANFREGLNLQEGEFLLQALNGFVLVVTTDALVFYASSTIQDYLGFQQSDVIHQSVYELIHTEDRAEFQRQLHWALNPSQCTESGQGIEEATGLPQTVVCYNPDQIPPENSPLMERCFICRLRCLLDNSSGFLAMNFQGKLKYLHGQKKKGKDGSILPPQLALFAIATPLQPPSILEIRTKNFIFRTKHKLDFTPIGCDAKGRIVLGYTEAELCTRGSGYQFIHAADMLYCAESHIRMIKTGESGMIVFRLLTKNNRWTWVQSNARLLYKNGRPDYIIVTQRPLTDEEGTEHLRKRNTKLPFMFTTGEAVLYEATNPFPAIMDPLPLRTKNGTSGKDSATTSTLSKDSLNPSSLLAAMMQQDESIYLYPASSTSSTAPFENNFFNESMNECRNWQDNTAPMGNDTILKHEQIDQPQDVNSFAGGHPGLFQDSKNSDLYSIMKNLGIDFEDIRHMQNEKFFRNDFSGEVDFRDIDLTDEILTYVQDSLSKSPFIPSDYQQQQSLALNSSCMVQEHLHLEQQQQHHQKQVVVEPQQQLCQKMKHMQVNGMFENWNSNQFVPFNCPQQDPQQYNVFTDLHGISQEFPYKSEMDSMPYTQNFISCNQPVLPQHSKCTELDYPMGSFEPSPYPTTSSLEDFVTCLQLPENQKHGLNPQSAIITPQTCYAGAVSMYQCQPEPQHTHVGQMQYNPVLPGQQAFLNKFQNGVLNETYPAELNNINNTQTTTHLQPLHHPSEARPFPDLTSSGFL
# Experiment: DRE-Luciferase reporter high-throughput screen (AHR antagonist, VAF347-activated)
# From the text: HepG2 hepatocellular carcinoma cells were transfected with a dioxin-response element (DRE) Firefly luciferase reporter construct. Luciferase transcription was activated with the aryl hydrocarbon receptor (AHR) agonist, VAF347. Addition of an AHR antagonist results in inhibition of the luciferase transcription and a loss of signal in the assay.
# HepG2, a hepatocellular carcinoma cell line, was transfected with the dioxin-response element Firefly luciferase reporter construct using the TransIT-transfection system. Prior to transfection, HepG2 cells (Sigma) were cultured at 90% confluency in Eagle's Modified Essential Medium (Sigma)+2 mM Glutamine (Sigma), +1^% Non Essential Amino Acids (Sigma)+10% Fetal Bovine Serum (Hyclone) and harvested and counted (Biorad TC20 cell counter). OptilMEM serum-free media and TransIT (Mirus) were mixed for transfection in 150 mm dishes by adding 240 μL Transit to 3.0 mL OptiMEM, vortexing briefly to mix, and incubating at room temperature for 20 minutes. The DNA mixture was prepared by adding 80 μg plasmid (pGudLuc6.1 plasmid, Garrison et al., (1996) Fundam. Appl. Toxicol., 30, 194-203), inverting to mix, and incubating at room temperature for 30 minutes. 30×10^6 HepG2 cells were seeded in 30 mL media and 3.3 mL of the DNA, OptiMEM, and TransIT mixture was added dropwise to the plate. The plate was mixed by rocking and incubated at 37° C./5% CO2 overnight. The next day, cells were harvested by aspirating media, washing once with sterile phosphate buffered saline (PBS, Gibco), trypsinzing with 0.05% Trypsin (Corning) and harvesting cells with culture medium, and freezing with Cell Freezing Media (Gibco) at 5 50×10^6 cells/vial in 1 mL/vial.
# Transiently-transfected frozen HepG2 cells with DRE-Luciferase, were thawed in a 37° C. water bath and resuspended in complete media. 4 μL cells at 15,000 cells per well was transferred into the wells of a 1536-well Alphaplate assay plate (PerkinElmer) using TEMPEST liquid dispenser. The plate was centrifuged at 1000 rpm for 1 minute. 30 nL of the controls (1 μM (S)-2-(6-((2-(1H-indol-3-yl)ethyl)amino)-2-(5-fluoropyridin-3-yl)-9H-purin-9-yl)propan-1-ol or 100% DMSO) were transferred to the assay plate using the Pin Tool on BRAVO. 1 μL of VAF347 (15 nM final concentration) in complete media was added to the wells using TEMPEST. The plate was centrifuged at 1000 rpm for 1 minute and incubated at 37° C./5% CO2 overnight. After incubation, the plate was removed from the incubator and brought to room temperature. 2 μL of room temperature Steady-Glo luciferase detection reagent (Promega) was added to the wells with TEMPEST. The plate was centrifuged at 2000 rpm for 1 minute, sealed with clear plastic seal and kept at room temperature for 15 minutes prior to measuring luminescence on ENVISION.
# Approximately 166,000 compounds were screened in 132 1536-well plates in the luciferase reporter gene assay at a final concentration of 12 μM. […] Each compound was tested at 0.1 μM, 1.0 μM, and 10 μM in the DRE luciferase assay and Cell Titer Glo cytotoxicity assay (Promega). […] 512 compounds were selected for 10-point dose-response in the AHR luciferase reporter assay and the Cell Titer Glo cytotoxicity assay.
row,pIC50,SMILES
1,5.70 to 6.00,Cc1ccc(NC(=O)CSc2nnc(C)c3ccccc23)cc1 [160A]
2,< 5.70,COc1nc2ccccc2nc1CCC(=O)NC1CCCCCC1 [161A]
3,5.70 to 6.00,CCCc1c(C)nc(Nc2nc(C)c3cc(C)cc(C)c3n2)[nH]c1=O [163A]
4,< 5.70,CC(NC(=O)c1c(N)n(C)c2ccccc2c1=O)c1ccccc1 (stereo not shown) [165A]
5,5.70 to 6.00,CSc1nc(-c2ccccc2)nc2[nH]c(-c3ccccc3)cc(=O)c12 [166A]
6,5.70 to 6.00,O=c1[nH]c2ccccc2nc1NCc1ccc(F)cc1 [168A]
7,5.70 to 6.00,COc1ccc(C(=O)Nc2nc3c(s2)CCCC3)cc1 [171A]
8,5.70 to 6.00,CNC(=O)N(C)C(=O)c1cnc2onc(-c3ccc(C)cc3)c2c1 [173A]
9,5.70 to 6.00,COc1ccc(Nc2nn(-c3ccccc3)c3c2C(=O)CCC3)cc1 [177A]
10,< 5.70,C#CCn1cnc2c(nnn2-c2ccc(C)c(Cl)c2)c1=O [178A]
11,< 5.70,Cc1c(C(=O)OC2CCCC2)[nH]c2c1C(=O)CCC2 [179A]
12,5.70 to 6.00,Cc1ccc(N2CC[C@@H]3[C@@H]2CCN3c2ncc(F)cn2)nn1 [181A]
13,5.70 to 6.00,CCN1C(=O)C[C@@H]2[C@@H]1CCN2S(=O)(=O)Cc1ccc(C)cc1 [182A]
14,< 5.70,CC(C)CCNC(=O)c1[nH]nc2c1COc1ccccc1-2 [183A]
15,5.70 to 6.00,CCCNC(=O)c1cc2cc3ccc(C)cc3nc2o1 [184A]
16,< 5.70,COc1cccc2c1cc1c(O)nnc(C)n12 [185A]
17,< 5.70,O=C(c1cc2sc3ccccc3c2s1)N1CCCCC1 [186A]
18,< 5.70,COc1ccc2cc(C)c3nn(CCNC(=O)c4sc(C)nc4C)c(=O)n3c2c1 [191A]
19,5.70 to 6.00,Cn1c(N)c(C(=O)CSc2ccc(F)cc2)c(=O)n(C)c1=O [195A]
20,< 5.70,CCOC(=O)c1ccc(Nc2nc(=O)c3cccnc3s2)cc1 [196A]
21,5.70 to 6.00,CCc1cc2c(=O)c(-c3nc(C)cs3)coc2c(CN2CCCC(c3cccnc3)C2)c1O (stereo not shown) [197A]
22,6.00 to 6.30,Cc1ccc(NC(=O)c2ccc(OC(F)(F)F)cc2)nc1 [compound 10]
23,6.30 to 6.70,Cc1cccc(-n2ccc(=O)c(C(=O)Nc3ccccc3F)n2)c1 [compound 31]
24,6.30 to 6.70,COCCN1Cc2cccc(C(=O)Nc3ccc(C)c(F)c3)c2C1=O [compound 32]
25,6.30 to 6.70,COC(=O)c1cccc(NC(=O)c2nsc3ccccc23)c1 [compound 33]
26,6.30 to 6.70,COc1cc(OC)c(NC(=O)c2[nH]nc3c2CSc2ccccc2-3)cc1Cl [compound 34]

row,pIC50,SMILES
1,6.00 to 6.30,CCCn1ncc(C(=O)Nc2ccc(N3CCCCC3)c(F)c2)c1C [compound 35]
2,6.00 to 6.30,Cn1nc(C2CC2)cc1C(=O)Nc1ccc(I)cc1 [compound 36]
3,6.00 to 6.30,Cc1csc(Nc2nc(N)c(C(=O)Nc3cc(Cl)ccc3F)o2)n1 [compound 37]
4,6.00 to 6.30,CCOC(=O)c1sc(NC(=O)c2ccc3ncsc3c2)cc1C [compound 39]
5,> 6.70,CCOC(=O)c1sc(NC(=O)c2cn3ccccc3n2)cc1C [compound 40]
6,6.00 to 6.30,CCOC(=O)c1sc(NC(=O)c2sccc2C)cc1C [compound 44]
7,> 6.70,CC(C)(C)c1cc(C(=O)Nc2ccc3c(c2)CCN3S(C)(=O)=O)nc2ncnn12 [compound 48]
8,> 6.70,COc1ccccc1-c1nc(-c2ccc(CN(C)C(C)=O)cc2)cs1 [compound 50]
9,6.00 to 6.30,CCCOc1ccc(-c2csc(N3CCCC3=O)n2)cc1 [compound 54]
10,6.00 to 6.30,COc1ccc(-c2csc(C3=C(N)N(C(C)C)CC3=O)n2)cc1 [compound 55]
11,6.00 to 6.30,COc1ccc(CC(=O)Nc2ccc(-c3nccs3)cc2)cc1S(=O)(=O)N1CCOCC1 [compound 63]
12,6.30 to 6.70,CCNC(=O)c1sc2ncc(C(=O)c3ccc(C)cc3)n2c1C [compound 66]
13,6.00 to 6.30,Cc1cn2cc(-c3ccc(F)cc3)nc2s1 [compound 67]
14,> 6.70,COc1ccnc(N2CCN(c3ccc(Cl)cc3)CC2)c1C#N [compound 80]
15,6.30 to 6.70,CN(C)c1nc(N2CCN(c3ccc(F)cc3)CC2)cc(C(F)(F)F)n1 [compound 81]
16,6.30 to 6.70,Cc1cc2cc(Nc3nccc(C(F)(F)F)n3)ccc2[nH]1 [compound 84]
17,6.30 to 6.70,COC(=O)c1cnn(-c2cc(Nc3c(F)cccc3F)ncn2)c1N [compound 86]
18,6.30 to 6.70,CC(=O)N(CCn1nc(C)cc1C)c1nc2c(F)cc(F)cc2s1 [compound 93]
19,6.30 to 6.70,CN(C)c1cccc(-c2nnc(-c3ccc(C(F)(F)F)cc3)[nH]2)c1 [compound 97]
20,6.30 to 6.70,CCOC(=O)c1c(C)[nH]c(-c2cn3ccccc3n2)c1C [compound 102]
21,6.30 to 6.70,CC(=O)N1CC=C(c2ccc(OCc3ccc(C#N)cc3)cc2)CC1 [compound 143]
22,6.00 to 6.30,CC(C)CCNC(=O)c1cc2c(=O)n(C)c3ccccc3c2s1 [compound 145]
23,6.00 to 6.30,CCC(=O)N1CCc2nc(-c3ccccc3)sc2C1 [compound 147]
24,6.00 to 6.30,CC(C)C(=O)Nc1ccc2c(c1)C(=O)c1c-2nn(C)c1C(C)(C)C [compound 148]
25,6.00 to 6.30,O=C(Nc1cnc2ccc(C(F)(F)F)cn2c1=O)OCc1ccccc1 [compound 151]
26,6.00 to 6.30,COc1ccc2c(c1)-c1cccc([N+](=O)[O-])c1CC2C#N (stereo not shown) [compound 152]

# Further lines, the molecule ahead of its results:
row,SMILES,pIC50
1,Cc1ccc(-c2cc(C(=O)NCc3cccnc3)c3cc(Br)ccc3n2)cc1 [155A],5.70 to 6.00
2,NC(=O)c1cc(-c2ccc(Cl)s2)nc2ccccc12 [156A],5.70 to 6.00
3,COc1ccc(Nc2ccc3ccccc3n2)cc1Cl [157A],5.70 to 6.00
4,Cc1cc(C)c2cc(C#N)c(Oc3cccnc3)nc2c1 [158A],5.70 to 6.00
5,Cc1nnc(Oc2ccc(Cl)cc2Cl)c2ccccc12 [159A],5.70 to 6.00
6,Cc1ccc(S(=O)(=O)N=C(N)Nc2nc(C)c3cc(C)ccc3n2)cc1 [164A],5.70 to 6.00
7,O=c1cc(NCc2cccc(C(F)(F)F)c2)nc2ccc(Cl)cn12 [167A],< 5.70
8,Cc1ccc(-c2cc(-c3ccccc3)c3c(N)c(S(C)(=O)=O)sc3n2)cc1 [169A],5.70 to 6.00
9,CCN(CC)c1ncnc2sc(-c3ccccc3)cc12 [170A],5.70 to 6.00
10,Clc1ccccc1CNc1ccc(-c2nc3ncccc3o2)cc1 [172A],5.70 to 6.00
11,N#Cc1ccc(OCc2ccc3nonc3c2)cc1 [174A],< 5.70
12,C=C(Cc1nnc(C(C)C)s1)c1cn(CCOC)cc2c(=O)n(-c3ccccc3)nc1-2 [175A],< 5.70
13,CC(C)Nc1ccc(-n2nc3ccccc3[n+]2[O-])cc1 [176A],5.70 to 6.00
14,CCCNC(=O)c1cc2sc(Cl)cc2n1C [180A],< 5.70
15,Cc1cc2ccccc2n2c(SCC(=O)Nc3ccccc3F)nnc12 [187A],< 5.70
16,CN1CC(c2ccccc2)=Cc2c1ccc1nonc21 [188A],5.70 to 6.00
17,N#Cc1c(NC(=O)Nc2ccc(Cl)c(Cl)c2)sc2c1C1CCN2CC1 [192A],5.70 to 6.00
18,O=C(NCCn1nc(-c2cccs2)ccc1=O)c1cccs1 [194A],< 5.70

row,SMILES,pIC50
1,O=C(Nc1ccc2[nH]c(C(F)(F)F)nc2c1)c1cccn(Cc2ccccc2)c1=O [compound 49],> 6.70
2,O=[N+]([O-])c1cccc(-c2csc(-c3cccc(-n4cnc(Cl)c4Cl)c3)n2)c1 [compound 51],6.30 to 6.70
3,COc1ccccc1N(C(=O)c1ccc(O)nc1)c1nc(-c2ccc([N+](=O)[O-])cc2)cs1 [compound 56],6.30 to 6.70
4,CS(=O)(=O)c1ccc(-c2csc(-c3cccs3)n2)cc1 [compound 61],6.30 to 6.70
5,O=C(Cc1cccc(F)c1)Nc1ccc(-c2nccs2)cc1 [compound 62],6.00 to 6.30
6,Clc1ccc(-c2ncc(-c3cc[nH]n3)s2)cc1 [compound 64],6.00 to 6.30
7,Cc1ccc(N)cc1Nc1nccc(-c2cccnc2)n1 [compound 85],6.00 to 6.30
8,FC(F)(F)c1cnc(-c2cnc(-c3ccccn3)nc2)c(Cl)c1 [compound 87],6.00 to 6.30
9,CN(C)C(=O)Oc1ccc(-c2cn3cc(C(F)(F)F)ccc3n2)cc1 [compound 103],6.00 to 6.30
10,Fc1ccc(-c2cn(-c3ccc4nnc(C(F)(F)F)n4n3)cn2)cc1 [compound 108],6.00 to 6.30
11,C1=C(c2ccccc2)CCN(c2ccc3nnnn3n2)C1 [compound 110],6.00 to 6.30
12,COc1ccc(N2CCN(c3nc(C(F)(F)F)cs3)CC2)cc1 [compound 111],6.00 to 6.30
13,CN1/C(=N/c2ccccc2)SCC1(O)c1ccc([N+](=O)[O-])cc1 (stereo not shown) [compound 142],6.30 to 6.70
14,c1cncc(-c2noc(-c3cc(-c4cccs4)[nH]n3)n2)c1 [compound 144],6.00 to 6.30
15,CN(C)c1ccc(-c2nnc(-c3cccs3)o2)cc1 [compound 149],6.00 to 6.30
16,CN(CC(=O)NC(=O)Nc1ccccc1)Cc1ccc(Cl)s1 [compound 153],6.00 to 6.30
17,N#Cc1ccccc1COc1ccc(-n2cnnn2)cc1 [compound 154],6.00 to 6.30
18,FCCCSc1nnc(-c2cc3cc4ccccc4nc3s2)o1 [compound 155],6.00 to 6.30
